Assay results published in patent US7759345B2, “Antitumoral derivatives of ET-743” (priority 2001, dated 2010).
Like-named read-outs stand apart in the source and are kept apart here.

Experiments:
[1] = system: A-549; test: Inhibition of cell growth by counting cells, A-549; format: cell-based, human; conditions: Homo sapiens, A549, 72 h; three days of incubation; read-out: IC50 (molar) A-549
Protocol: (§1) 1°.—Inhibition of Cell Growth by Counting Cells.
(§2) This form of the assay employs 24 well multidishes of 16 mm diameter (Bergeron, 1984; Schroeder, 1981). The tumor cell lines employed are: P-388 (ATCC CCL 46), suspension culture of a lymphoid neoplasm from a DBA/2 mouse; A-549 (ATCC CCL 185), monolayer culture of a human lung carcinoma; HT-29 (ATCC HTB-38), monolayer culture of a human colon carcinoma; MEL-28 (ATCC HTB-72), monolayer culture of a human melanoma and DU-145 (ATCC HTB-81), monolayer culture of a human prostate carcinoma.
(§3) Cells were maintained, in logarithmic phase of growth in Eagle's Minimum Essential Medium, with Earle's Balanced Salts, with non-essential amino acids, with 2.0 mM L-Glutamine, without sodium bicarbonate (EMEM/neaa), supplemented with 10% Fetal Calf Serum (FCS), 10^−2 M. sodium bicarbonate and 0.1 U/l penicillin G+0.1 g/l streptomycin sulfate. For the experiments, cells are harvested from subconfluent cultures using trypsin and resuspended in fresh medium before plating.
(§4) A-549, HT-29, MEL-28 and DU-145 cells were seeded into 16 mm diameter wells at 1×10^4 cells per well in 1 ml aliquots of EMEM 5% FCS containing different concentrations of the sample to be tested. A separate set of cultures without drug was seeded as control of growth, to ensure that cells remained in exponential phase of growth. All determinations are carrying out in duplicate. After three days of incubation at 37° C., 5% CO2 in a 98% humid atmosphere cells were stained with 0.1% crystal violet. An approximately IC50 was determined by comparing the growth in wells with drug to the growth in wells control.
(§5) For quantifying the activity, after the incubation time, cells are trypsinized and counted in a Coulter Counter ZM. All counts (net cells per well), represent the average of duplicate wells. % G, percent of growth relative to cultures without drug. The results of these assays are used to generate dose-response curves from which more precise IC50 values are determined (sample concentration which produces 50% cell growth inhibition).
(§6) Obtained results may predict the usefulness of a certain drug as a potential cancer treatment. For this technique, compounds which show IC50 values smaller than 1 μg/ml are selected to continue with further studies. IC50's data allow to predict that not only could a drug be cystostatic, but also it could have a potential in terms of tumor reduction.

[2] = system: HT-29; test: Inhibition of cell growth by counting cells, HT-29; format: cell-based, human; conditions: Homo sapiens, HT-29, 72 h; three days of incubation; read-out: IC50 (molar) HT-29
Protocol: as §1, §2, §3, §4, §5, §6

[3] = system: A-549; test: Inhibition of cells growth by colorimetric assay (SRB), A-549; format: cell-based; conditions: for GI50 / LC50 (concentration for 50% cell killing): Homo sapiens, A549, 48 h; for GI50: read-out: A-549 GI50; for LC50 (concentration for 50% cell killing): read-out: A-549 LC50, SRB assay, 48 hours exposure
Protocol: (§7) 2°.—Inhibition of Cells Growth by Colorimetric Assay.
(§8) A colorimetric type of assay, using sulforhodamine B (SRB) reaction has been adapted for a quantitative measurement of cell growth and viability [following the technique described by Philip Skehan, et al. (1990), New colorimetric cytotoxicity assay for anticancer drug screening, J. Natl. Cancer Inst., 82:1107-1112]
(§9) This form of the assay employs 96 well cell culture microplates of 9 mm diameter (Faircloth, 1988; Mosmann, 1983). Most of the cell lines are obtained from American Type Culture Collection (ATCC) derived from different human cancer types.
(§10) Cells are maintained in RPMI 1640 10% FBS, supplemented with 0.1 g/l penicillin and 0.1 g/l streptomycin sulfate and then incubated at 37° C., 5% CO2 and 98% humidity. For the experiments, cells were harvested from subconfluent cultures using trypsin and resuspended in fresh medium before plating.
(§11) Cells are seeded in 96 well microtiter plates, at 5×10^3 cells per well in aliquots of 195 μl medium, and they are allowed to attach to the plate surface by growing in drug free medium for 18 hours. Afterward, samples are added in aliquots of 5 μl in a ranging from 10 to 10^−8 μg/ml, dissolved in DMSO/EtOH/PBS (0.5:0.5:99). After 48 hours exposure, the antitumor effect are measured by the SRB methodology: cells are fixed by adding 50 μl of cold 50% (wt/vol) trichloroacetic acid (TCA) and incubating for 60 minutes at 4° C. Plates are washed with deionized water and dried. One hundred μl of SRB solution (0.4% wt/vol in 1% acetic acid) is added to each microtiter well and incubated for 10 minutes at room temperature. Unbound SRB is removed by washing with 1% acetic acid. Plates are air dried and bound stain is solubilized with Tris buffer. Optical densities are read on a automated spectrophotometric plate reader at a single wavelength of 490 nm.
(§12) The values for mean+/−SD of data from triplicate wells are calculated. Some parameters for cellular responses can be calculated: GI=growth inhibition, TGI=total growth inhibition (cytostatic effect) and LC=cell killing (cytotoxic effect).
as §6, with “GI50” for “IC50”, “10” for “1”, “GI50's” for “IC50's”

[4] = system: HT-29; test: Inhibition of cells growth by colorimetric assay (SRB), HT-29; format: cell-based; conditions: for GI50 / LC50 (concentration for 50% cell killing): Homo sapiens, HT-29, 48 h
Protocol: as §7, §8, §9, §10, §11, §12
as §6, with “GI50” for “IC50”, “10” for “1”, “GI50's” for “IC50's”

[5] = SRB assay, 48 hours exposure, read-out: HT-29 GI50
[6] = read-out: HT-29 LC50, SRB assay, 48 hours exposure

| Compound | IC50 [1] [nM] | IC50 [2] [nM] | GI50 ([3]; SRB assay, 48 hours exposure) [nM] | LC50 (concentration for 50% cell killing) [3] [nM] | A-549 TGI ([3]; SRB assay, 48 hours exposure) | GI50 [4, 5] [nM] | LC50 (concentration for 50% cell killing) [4, 6] [nM] | HT-29 TGI ([4]; SRB assay, 48 hours exposure) | also measured |
| --- | --- | --- | --- | --- | --- | --- | --- | --- | --- |
| COc1cc2c(cc1OC(=O)OC(C)(C)C)CCN[C@]21CS[C@@H]2c3c(OC(=O)C(F)(F)F)c(C)c4c(c3[C@H](COC1=O)N1C2[C@H]2c3c(cc(C)c(OC)c3OC(=O)C(F)(F)F)C[C@@H]([C@@H]1C#N)N2C)OCO4 (some centres unmarked) [Compound 109] | 0.98 | 0.98 |  |  |  |  |  |  |  |
| COc1cc2c(cc1OC(=O)OC(C)(C)C)CCN[C@]21CS[C@@H]2c3c(OC(=O)OC(C)(C)C)c(C)c4c(c3[C@H](COC1=O)N1C2[C@H]2c3c(cc(C)c(OC)c3OC(=O)OC(C)(C)C)C[C@@H]([C@@H]1C#N)N2C)OCO4 (some centres unmarked) [Compound 110] | 0.0972 | 0.0972 |  |  |  |  |  |  |  |
| CCCC(=O)Oc1c(C)c2c(c3c1[C@H]1SC[C@]4(NCCc5cc(OC(=O)OC(C)(C)C)c(OC)cc54)C(=O)OC[C@@H]3N3C1[C@H]1c4c(cc(C)c(OC)c4OC(=O)CCC)C[C@@H]([C@@H]3C#N)N1C)OCO2 (some centres unmarked) [Compound 112] | 10.3 | 10.3 |  |  |  |  |  |  |  |
| COc1cc2c(cc1OC(=O)OC(C)(C)C)CCN[C@]21CS[C@@H]2c3c(OC(=O)/C=C/c4ccccc4)c(C)c4c(c3[C@H](COC1=O)N1C2[C@H]2c3c(cc(C)c(OC)c3OC(=O)/C=C/c3ccccc3)C[C@@H]([C@@H]1C#N)N2C)OCO4 (some centres unmarked) [Compound 114] | 9.18 | 9.18 |  |  |  |  |  |  |  |
| C=CCOC(=O)Oc1c(C)c2c(c3c1[C@H]1SC[C@]4(NCCc5cc(OC(=O)OC(C)(C)C)c(OC)cc54)C(=O)OC[C@@H]3N3C1[C@H]1c4c(cc(C)c(OC)c4O)C[C@@H]([C@@H]3C#N)N1C)OCO2 (some centres unmarked) [Compound 115] | 0.11 | 0.11 |  |  |  |  |  |  |  |
| COc1cc2c(cc1O)CCN(C)[C@]21CS[C@@H]2c3c(OC(C)=O)c(C)c4c(c3[C@H](COC1=O)N1C2[C@H]2c3c(cc(C)c(OC)c3O)C[C@@H]([C@@H]1C#N)N2C(=O)OC(C)(C)C)OCO4 (some centres unmarked) [Compound 200] |  |  | 23 | 115 | 3.45E-08 | 23 | 1150 | 8.05E-09 |  |
| COc1cc2c(cc1OC(C)=O)CCN[C@]21CS[C@@H]2c3c(OC(C)=O)c(C)c4c(c3[C@H](COC1=O)N1C2[C@@H]2N[C@@H](Cc3cc(C)c(OC)c(O)c32)[C@@H]1O)OCO4 (some centres unmarked) [Compound 210] |  |  |  | 38000 | 5.06E-13 |  | 63300 | 6.33E-08 |  |
| CCCC(=O)Oc1cc2c(cc1OC)[C@@]1(CS[C@@H]3c4c(OC(C)=O)c(C)c5c(c4[C@H](COC1=O)N1C3[C@@H]3N[C@@H](Cc4cc(C)c(OC)c(O)c43)[C@@H]1O)OCO5)NCC2 (some centres unmarked) [Compound 211] |  |  | 0.00367 | 61100 | 6.11E-09 | 0.00122 | 61100 | 1.22E-12 |  |
| CC(=O)Oc1c(C)c2c(c3c1[C@H]1SCC(=O)C(=O)OC[C@@H]3N3C1[C@H]1c4c(cc(C)c(O)c4O)C[C@@H]([C@@H]3C#N)N1C)OCO2 (some centres unmarked) [Compound 219] |  |  | 8.24 | 16500 | 1.65E-06 | 82.4 | 16500 | 1.65E-06 |  |
| COc1cc2c(cc1O)CCN[C@]21CS[C@@H]2c3c(OC(C)=O)c(C)c4c(c3[C@H](COC1=O)N1C2[C@H]2c3c(cc(C)c(O)c3O)C[C@@H]([C@@H]1C#N)N2C)OCO4 (some centres unmarked) [Compound 220] |  |  |  | 6610 | 3.96E-07 |  |  |  | GI50 [3]: 132 nM; GI50 ([4]; read-out: H-T29 GI50): 132 nM; LC50 (concentration for 50% cell killing) ([4]; read-out: H-T29 LC50, SRB assay, 48 hours exposure): 1320 nM; H-T29 TGI ([4]; SRB assay, 48 hours exposure): 5.28E-07 |
